Test results reported in US8232407B2, “Nitrogenous heterocyclic compounds with insecticidal activity, and the preparation and use thereof” (East China University of Science and Technology, priority 2008, dated 2012).

Experiments:
Assay type in all cases: in vivo
Aphis craccivoral = assay: Insecticidal activities to aphids, immersion method
How it was run: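 Immersion assay: compound diluted from 10 g/L DMF stock to 500 ppm in 0.2 mL/L Triton X-100, sprout-feeding wingless adults dipped 5 s. Kept at 23° C, three repeats; 24 h mortality calculated relative to surviving Triton-treated controls.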

Plutella xylostella = assay: Insecticidal activities to diamondback moth, feeding dipped leaves
How it was run: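 Mortality was scored 24 h after larvae of Plutella xylostella (10 per treatment, 3 repeats) fed on cabbage leaves immersed 3 s in test solution and dried at room temperature. It was computed relative to survivors in a water-treated control.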

[1] = system: Pseudaletia separate Walker; assay: Insecticidal activities to armyworm, leaf dipping and feeding
How it was run: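 Armyworms (10 per tumbler, 3 replicates) ate fresh maize leaves that had been immersed for 3 seconds in compound solutions of 1.57-500 ppm in acetone, or in aqueous acetone for controls. Kills were scored at 24 h, and mortality was calculated relative to survivors in the control group.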

Nilaparvata lugens = assay: Insecticidal activities to plant hopper, spraying method
How it was run: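 Spray test: acetone solutions of 500 down to 0.79 ppm, 2 ml per tumbler holding 10 planthoppers introduced 6 h earlier, triplicate, aqueous acetone as control. Mortality at 24 h calculated from survivors relative to control.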

[2] = 500 ppm, spraying method, counted after 24 hours
[3] = 500 ppm, leaf dipping and feeding, counted after 24 hours

Structure (SMILES)	Aphis craccivoral Mortality (%) 500 ppm (Aphis craccivoral; in vivo)	Plutella xylostella Mortality (%) 500 ppm (Plutella xylostella; in vivo)	Pseudaletia separate Walker Mortality (%) 500 ppm ([1]; in vivo)	Nilaparvata lugens Mortality (%) 500 ppm (Nilaparvata lugens; in vivo)	other results
CC(=C(C1=NCCN1Cc1ccc(Cl)nc1)[N+](=O)[O-])c1ccc([N+](=O)[O-])o1 [Compound 113]	80%	100%	100%	100%	
N#CC(=Cc1sc(Cl)cc1Cl)C1=NCCN1Cc1ccc(Cl)nc1 [Compound 150]					Aphis craccivoral Mortality (%) (Aphis craccivoral; 500 ppm, immersion method): 95%; Plutella xylostella Mortality (%) (Plutella xylostella; 500 ppm, feeding dipped cabbage leaves, counted after 24 hours): 100%; Pseudaletia separate Walker Mortality (%) ([1]; 500 ppm, maize leaf dipping and feeding, counted after 24 hours): 100%; Nilaparvata lugens Mortality (%) (Nilaparvata lugens; [2]): 100%
O=[N+]([O-])C(=Cc1ccc(Cl)o1)C1=NCCN1Cc1cnc(Cl)s1 [Compound 71]	100%	100%	100%	100%	
N#CC(=Cc1ccco1)C1=NCCN1Cc1ccc(Cl)nc1 [Compound 140]	100%	100%	100%	100%	
O=[N+]([O-])C(=Cc1cc(Cl)cs1)C1=NCCN1Cc1cnc(Cl)s1 [Compound 88]	100%	100%	100%	100%	
O=[N+]([O-])C(=Cc1ccc(Br)o1)C1=NCCN1Cc1cnc(Cl)s1 [Compound 72]	100%	100%	100%	100%	
O=[N+]([O-])C(=Cc1ccc([N+](=O)[O-])o1)C1=NCCN1CC1CCOC1 (stereo not drawn) [Compound 93]	78%	96%	100%	87%	
CC(c1ccc(Cl)nc1)N1CCN=C1C(=Cc1ccc(Cl)o1)[N+](=O)[O-] (racemic) [Compound 125]	100%	100%	98%	100%	
O=[N+]([O-])C(=Cc1ccsc1)C1=NCCN1Cc1cnc(Cl)s1 [Compound 84]	100%	100%	100%	100%	
O=[N+]([O-])/C(=C/c1ccco1)C1=NCCCN1Cc1ccc(Cl)nc1 [Compound 46, 1-((6-chloropyridin-3-yl)methyl)-2-(2-(furan-2-yl)-1-nitrovinyl)-1,4,5,6-tetrahydropyrimidine]					mortality at 500 ppm (Aphis craccivoral; Aphis, 500 ppm, immersion method, read-out: Aphis craccivoral Mortality (%) 500 ppm): 100%; mortality at 500 ppm (Plutella xylostella; Plutella xylostella, 500 ppm, feeding dipped leaves, counted after 24 hours, read-out: Plutella xylostella Mortality (%) 500 ppm): 100%; Pseudaletia separate Walker Mortality (%) 500 ppm [1, 3]: 100%; mortality at 500 ppm (Nilaparvata lugens; Nilaparvata lugens, 500 ppm, spraying method, counted after 24 hours, read-out: Nilaparvata lugens Mortality (%) 500 ppm): 100%
N#CC(=Cc1oc(Cl)cc1Cl)C1=NCCN1Cc1ccc(Cl)nc1 [Compound 143]	75%	85%	86%	100%	
O=[N+]([O-])C(=Cc1ccc(CO)o1)C1=NCCCN1Cc1ccc(Cl)nc1 [Compound 60]	47%	100%	84%	56%	
CC(=C(C1=NCCN1Cc1ccc(Cl)nc1)[N+](=O)[O-])c1ccoc1 [Compound 112]	56%	53%	68%	76%	
CC(c1ccc(Cl)nc1)N1CCN=C1C(=Cc1ccc(Br)o1)[N+](=O)[O-] (racemic) [Compound 126]	100%	100%	100%	100%	
O=[N+]([O-])C(=Cc1ccc([N+](=O)[O-])s1)C1=NCCN1Cc1ccc(Cl)nc1 [Compound 18]	100%	100%	100%	100%	
O=[N+]([O-])C(=Cc1ccc(Br)o1)C1=NCCN1CC1CCOC1 (stereo not drawn) [Compound 95]	65%	92%	87%	61%	
O=[N+]([O-])C(=Cc1cc(Br)cs1)C1=NCCCN1Cc1ccc(Cl)nc1 [Compound 67]	65%	100%	90%	83%	

Structure (SMILES)	Aphis craccivoral Mortality (%) 500 ppm (Aphis craccivoral; in vivo)	Plutella xylostella Mortality (%) 500 ppm (Plutella xylostella; in vivo)	Pseudaletia separate Walker Mortality (%) 500 ppm ([1]; in vivo)	Nilaparvata lugens Mortality (%) 500 ppm (Nilaparvata lugens; in vivo)	other results
O=[N+]([O-])C(=Cc1ccsc1)C1=NCCN1Cc1ccc(Cl)nc1 [Compound 17]	100%	100%	100%	100%	
O=[N+]([O-])C(=Cc1cc(Cl)c(Cl)o1)C1=NCCN1Cc1ccccc1 [Compound 108]	87%	24%	24%	95%	
C[N+]1=C(C(=Cc2sc(Br)cc2Br)[N+](=O)[O-])N(Cc2ccc(Cl)nc2)CC1.[Cl-] [Compound 269]	100%	100%	100%	100%	
O=[N+]([O-])C(=Cc1cccnc1)C1=NCCN1Cc1ccc(Cl)nc1 [Compound 38]	97%	87%	95%	100%	
O=[N+]([O-])C(=Cc1ccc([N+](=O)[O-])o1)C1=NCCCN1Cc1ccc(Cl)nc1 [Compound 48]	100%	100%	100%	100%	
CC[N+]1=C(C(=Cc2ccco2)[N+](=O)[O-])N(Cc2ccc(Cl)nc2)CC1.[Cl-] [Compound 285]	100%	100%	100%	100%	
CCc1ccc(C=C(C2=[N+](C)CCN2Cc2ccc(Cl)nc2)[N+](=O)[O-])o1.[Cl-] [Compound 257]	100%	100%	100%	100%	
CC[N+]1=C(C(=Cc2ccc(Cl)s2)[N+](=O)[O-])N(Cc2ccc(Cl)nc2)CC1.[Cl-] [Compound 294]	100%	100%	100%	100%	
N#CC(=Cc1cccs1)C1=NCCN1Cc1ccc(Cl)nc1 [Compound 146]	100%	100%	100%	100%	
C[N+]1=C(C(=Cc2ccc[nH]2)[N+](=O)[O-])N(Cc2ccc(Cl)nc2)CC1.[Cl-] [Compound 274]	100%	100%	100%	100%	
C[N+]1=C(C(=Cc2cccs2)[N+](=O)[O-])N(Cc2ccc(Cl)nc2)CC1.[Cl-] [Compound 259]	100%	100%	100%	100%	
O=[N+]([O-])C(=Cc1cc(Br)co1)C1=NCCN1Cc1ccc(Cl)nc1 [Compound 7]					Aphis craccivoral Mortality (%) 500 ppm (Aphis craccivoral; 500 ppm, immersion method): 100%; Plutella xylostella Mortality (%) 500 ppm (Plutella xylostella; 500 ppm, feeding dipped leaves, counted after 24 hours): 100%; Pseudaletia separate Walker Mortality (%) 500 ppm [1, 3]: 100%; Nilaparvata lugens Mortality (%) 500 ppm (Nilaparvata lugens; [2]): 100%
O=[N+]([O-])C(=Cc1cc(Cl)c(Cl)o1)C1=NCCN1CC1CCOC1 (stereo not drawn) [Compound 98]	76%	77%	68%	90%	
CCc1ccc(C(C)=C(C2=NCCN2Cc2ccc(Cl)nc2)[N+](=O)[O-])o1 [Compound 115]	93%	96%	79%	100%	
C[N+]1=C(C(=Cc2ccc(CO)s2)[N+](=O)[O-])N(Cc2ccc(Cl)nc2)CC1.[Cl-] [Compound 273]	100%	100%	100%	100%	
O=[N+]([O-])C(=Cc1cc(Br)cs1)C1=NCCN1Cc1ccc(Cl)nc1 [Compound 22]	100%	100%	100%	100%	
